# Experimental data from US6756375B2, “10-Aryl-11h-benzo[b]fluorene derivatives and analogs for medicinal use” (Akzo Nobel N.V., priority 2000, dated 2004).
# Biological target: human estrogen receptor β (hERβ) (Homo sapiens, UniProt Q92731)
# Assay: Antiestrogenic activity in the in vitro bioassay: recombinant CHO cells co-transfected with hERβ, rat oxytocin promoter and luciferase reporter gene
# Format: cell-based
# Conditions: potency ratio relative to standard ICI 164.384; inhibition of estradiol-induced luciferase transactivation via hERβ in CHO cells
# Procedure: The estrogenic and antiestrogenic activity of compounds is determined in an in vitro bioassay with recombinant Chinese hamster ovary (CHO) cells stably co-transfected with the human estrogen receptor α (hERα) or β receptor (hERβ), the rat oxytocin promoter (RO) and the luciferase reporter gene (LUC). The estrogenic activity (potency ratio) of a test compound to stimulate the transactivation of the enzyme luciferase mediated via the estrogen receptors hERα or hERβ is compared with the standard estrogen estradiol. The antiestrogenic activity (potency ratio) of a test compound to inhibit the transactivation of the enzyme luciferase mediated via the estrogen receptors hERα or hERβ by the estrogen estradiol is compared with the standard ICI 164.384 (=(7α,17β)-N-butyl-3,17-dihydroxy-N-methylestra-1,3,5(10)-triene-7-undecanamide).
# Chain of human estrogen receptor β (hERβ) (Q92731 whole entry): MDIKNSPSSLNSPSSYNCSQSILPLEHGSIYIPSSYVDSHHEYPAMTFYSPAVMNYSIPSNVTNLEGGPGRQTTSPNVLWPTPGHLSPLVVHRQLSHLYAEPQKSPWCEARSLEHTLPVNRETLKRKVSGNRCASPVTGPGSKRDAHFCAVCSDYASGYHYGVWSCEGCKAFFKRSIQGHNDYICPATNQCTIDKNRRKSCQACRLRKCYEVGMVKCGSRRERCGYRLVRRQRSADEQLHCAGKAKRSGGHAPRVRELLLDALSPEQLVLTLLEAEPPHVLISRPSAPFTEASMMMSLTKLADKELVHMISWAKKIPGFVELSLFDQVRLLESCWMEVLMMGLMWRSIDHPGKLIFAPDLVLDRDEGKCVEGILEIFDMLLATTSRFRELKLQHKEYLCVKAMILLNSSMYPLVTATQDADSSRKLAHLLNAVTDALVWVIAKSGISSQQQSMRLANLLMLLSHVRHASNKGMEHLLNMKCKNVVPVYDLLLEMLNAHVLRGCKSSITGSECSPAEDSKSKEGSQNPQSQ
row,Structure (SMILES),ERβ antagonism
1,Oc1ccc2c(c1)Cc1c-2cc2ccc(O)cc2c1-c1ccc2c(c1)OCO2 [Compound 5g],+ (5 > 5% (relative to ICI): +)
2,COc1ccc(-c2c3c(cc4ccc(O)cc24)-c2ccc(O)cc2C3)cc1 [Compound 5k],+ (5 > 5% (relative to ICI): +)
3,Cc1cccc(-c2c3c(cc4ccc(O)cc24)-c2ccc(O)cc2C3)c1 [Compound 5p],+ (5 > 5% (relative to ICI): +)
4,COc1cccc(-c2c3c(cc4ccc(O)cc24)-c2ccc(O)cc2C3)c1 [Compound 5c],+ (5 > 5% (relative to ICI): +)
5,Oc1ccc2c(c1)Cc1c-2cc2ccc(O)cc2c1-c1ccc(C(F)(F)F)cc1 [Compound 5o],+ (5 > 5% (relative to ICI): +)
6,Oc1ccc2c(c1)Cc1c-2cc2ccc(O)cc2c1-c1ccc(-c2ccccc2)c(F)c1 [Compound 5s],+ (5 > 5% (relative to ICI): +)
7,Oc1ccc2c(c1)Cc1c-2cc2ccc(O)cc2c1-c1ccc(OC(F)(F)F)cc1 [Compound 5r],++ (> 40%: ++)
8,Oc1ccc2c(c1)Cc1c-2cc2ccc(O)cc2c1-c1cccc(Cl)c1 [Compound 5n],+ (5 > 5% (relative to ICI): +)
9,Cc1ccc(-c2c3c(cc4ccc(O)cc24)-c2ccc(O)cc2C3)cc1 [Compound 5e],++ (> 40%: ++)
10,Oc1ccc2c(c1)Cc1c-2cc2ccc(O)cc2c1-c1ccc2ccccc2c1 [Compound 5b],+ (5 > 5% (relative to ICI): +)
11,Oc1ccc2c(c1)Cc1c-2cc2ccc(O)cc2c1-c1ccc(Cl)c(Cl)c1 [Compound 5m],++ (> 40%: ++)
12,Oc1ccc2c(c1)Cc1c-2cc2ccc(O)cc2c1-c1ccc(F)cc1 [Compound 5l],++ (> 40%: ++)
13,CC(C)c1cccc(-c2c3c(cc4ccc(O)cc24)-c2ccc(O)cc2C3)c1 [Compound 5q],+ (5 > 5% (relative to ICI): +)
14,Oc1ccc2c(c1)Cc1c-2cc2ccc(O)cc2c1-c1ccc(F)c(Cl)c1 [Compound 5f],+ (5 > 5% (relative to ICI): +)
15,Oc1ccc2c(c1)Cc1c-2cc2ccc(O)cc2c1-c1ccccc1 [Compound 5v],+ (5 > 5% (relative to ICI): +)
16,Oc1ccc2c(c1)Cc1c-2cc2ccc(O)cc2c1-c1ccccc1C(F)(F)F [Compound 5u],++ (> 40%: ++)
17,Oc1ccc2c(c1)Cc1c-2cc2ccc(O)cc2c1-c1cccc(F)c1 [Compound 5j],+ (5 > 5% (relative to ICI): +)
18,Oc1ccc2c(c1)Cc1c-2cc2ccc(O)cc2c1-c1ccc(Cl)cc1 [Compound 5a],+ (5 > 5% (relative to ICI): +)
19,Oc1ccc2c(c1)Cc1c-2cc2ccc(O)cc2c1-c1cccc(C(F)(F)F)c1 [Compound 5d],+ (5 > 5% (relative to ICI): +)
20,Oc1ccc2c(c1)Cc1c-2cc2ccc(O)cc2c1-c1ccc(-c2ccccc2)cc1 [Compound 5h],+ (5 > 5% (relative to ICI): +)
21,Oc1ccc2c(c1)Cc1c-2cc2ccc(O)cc2c1-c1ccc(OCCN2CCCCC2)cc1 [Compound 9],++ (> 40%: ++)
